Each compound was assayed against Cav3.2 (Homo sapiens, UniProt O95180) (assay: Calcium flux FLIPR assay, HEK293 cells recombinantly expressing Cav3.2). Details: Cav3.2-channel, Ca2+ entry stimulated by 10 mM CaCl2.
Assay type: cell-based
Procedure, shortened: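 Fluo-4-loaded HEK293 cells stably expressing Cav3.2, seeded overnight at 37 °C; compounds diluted in TEAC buffer (pH 7.2) and preincubated 3 min before Ca2+ entry triggered with CaCl2 at 10 mM final. Area under FLIPR fluorescence trace fitted sigmoidally; IC50 relative to vehicle signal.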

Cav3.2, sequence (O95180 whole entry, looked up): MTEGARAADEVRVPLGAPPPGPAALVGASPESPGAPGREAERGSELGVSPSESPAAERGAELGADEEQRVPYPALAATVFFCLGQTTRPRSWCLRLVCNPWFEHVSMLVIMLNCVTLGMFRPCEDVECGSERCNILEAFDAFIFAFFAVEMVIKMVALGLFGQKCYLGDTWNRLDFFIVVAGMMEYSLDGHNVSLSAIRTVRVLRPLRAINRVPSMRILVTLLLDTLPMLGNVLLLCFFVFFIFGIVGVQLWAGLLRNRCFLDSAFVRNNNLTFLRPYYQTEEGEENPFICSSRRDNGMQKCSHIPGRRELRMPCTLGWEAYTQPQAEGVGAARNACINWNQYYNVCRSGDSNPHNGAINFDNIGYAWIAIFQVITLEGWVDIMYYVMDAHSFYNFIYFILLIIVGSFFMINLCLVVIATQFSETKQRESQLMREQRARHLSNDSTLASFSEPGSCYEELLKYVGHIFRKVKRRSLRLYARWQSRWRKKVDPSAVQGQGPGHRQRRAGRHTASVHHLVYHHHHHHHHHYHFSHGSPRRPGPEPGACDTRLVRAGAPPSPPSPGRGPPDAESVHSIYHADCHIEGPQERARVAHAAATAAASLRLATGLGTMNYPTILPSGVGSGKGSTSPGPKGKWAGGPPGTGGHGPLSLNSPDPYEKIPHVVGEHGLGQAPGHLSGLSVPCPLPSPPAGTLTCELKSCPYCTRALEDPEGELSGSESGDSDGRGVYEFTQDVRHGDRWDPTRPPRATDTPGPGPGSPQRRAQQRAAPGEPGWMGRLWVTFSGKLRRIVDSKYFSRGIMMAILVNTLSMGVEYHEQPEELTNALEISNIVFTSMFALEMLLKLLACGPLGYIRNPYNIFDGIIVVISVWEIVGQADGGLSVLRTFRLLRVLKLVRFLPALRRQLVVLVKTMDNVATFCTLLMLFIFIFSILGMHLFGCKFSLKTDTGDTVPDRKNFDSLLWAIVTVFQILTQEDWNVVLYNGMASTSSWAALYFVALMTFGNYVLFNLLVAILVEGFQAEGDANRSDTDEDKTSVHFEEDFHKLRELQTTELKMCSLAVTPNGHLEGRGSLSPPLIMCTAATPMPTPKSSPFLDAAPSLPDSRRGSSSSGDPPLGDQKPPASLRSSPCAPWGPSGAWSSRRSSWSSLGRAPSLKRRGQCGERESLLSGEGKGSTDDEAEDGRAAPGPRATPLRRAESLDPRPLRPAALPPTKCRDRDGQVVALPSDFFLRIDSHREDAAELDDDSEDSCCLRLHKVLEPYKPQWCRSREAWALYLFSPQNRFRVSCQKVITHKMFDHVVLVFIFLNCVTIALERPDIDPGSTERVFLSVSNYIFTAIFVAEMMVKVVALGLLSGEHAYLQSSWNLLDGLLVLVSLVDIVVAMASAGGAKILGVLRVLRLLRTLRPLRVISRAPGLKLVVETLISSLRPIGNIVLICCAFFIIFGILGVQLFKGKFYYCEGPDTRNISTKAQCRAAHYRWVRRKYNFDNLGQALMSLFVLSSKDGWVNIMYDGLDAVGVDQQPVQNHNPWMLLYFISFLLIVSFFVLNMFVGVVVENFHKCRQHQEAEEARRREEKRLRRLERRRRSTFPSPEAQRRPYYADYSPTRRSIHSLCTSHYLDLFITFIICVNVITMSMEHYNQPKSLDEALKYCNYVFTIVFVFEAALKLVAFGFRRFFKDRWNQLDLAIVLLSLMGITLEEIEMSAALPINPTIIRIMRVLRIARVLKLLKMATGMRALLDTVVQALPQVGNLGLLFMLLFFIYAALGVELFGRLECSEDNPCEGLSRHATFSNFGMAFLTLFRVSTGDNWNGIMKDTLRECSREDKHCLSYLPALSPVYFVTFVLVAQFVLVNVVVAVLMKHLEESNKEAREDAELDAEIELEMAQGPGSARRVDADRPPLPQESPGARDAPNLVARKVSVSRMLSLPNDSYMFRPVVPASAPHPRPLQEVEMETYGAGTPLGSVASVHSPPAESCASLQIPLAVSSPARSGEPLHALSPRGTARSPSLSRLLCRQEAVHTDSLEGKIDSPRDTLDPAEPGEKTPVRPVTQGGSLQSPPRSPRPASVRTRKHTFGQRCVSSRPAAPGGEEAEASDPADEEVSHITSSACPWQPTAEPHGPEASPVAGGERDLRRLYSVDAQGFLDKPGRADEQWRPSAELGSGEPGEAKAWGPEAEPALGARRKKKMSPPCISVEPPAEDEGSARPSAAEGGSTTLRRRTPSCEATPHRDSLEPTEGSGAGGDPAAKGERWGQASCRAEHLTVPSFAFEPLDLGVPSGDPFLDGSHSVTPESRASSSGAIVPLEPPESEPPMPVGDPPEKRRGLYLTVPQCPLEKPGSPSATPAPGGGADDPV

SMILES | IC50 [nM]
COc1cc(Cn2ncc(NC(=O)Cc3ccc(OCC4COC4)cc3)n2)ccc1F [Example 108, N-[2-(4-Fluoro-3-methoxy-benzyl)-2H-[1,2,3]triazol-4-yl]-2-[4-(oxetan-3-ylmethoxy)-phenyl]-acetamide] | 300
COc1cc(Cn2ncc(NC(=O)Cc3ccc(OCC4CC(F)(F)C4)cc3)n2)ccc1F [Example 111, 2-[4-(3,3-Difluoro-cyclobutylmethoxy)-phenyl]-N-[2-(4-fluoro-3-methoxy-benzyl)-2H-[1,2,3]triazol-4-yl]-acetamide] | 57
COc1cc(Cn2ncc(NC(=O)Cc3ccc(OCC4(C)COC4)cc3)n2)ccc1F [Example 112, N-[2-(4-Fluoro-3-methoxy-benzyl)-2H-[1,2,3]triazol-4-yl]-2-[4-(3-methyl-oxetan-3-ylmethoxy)-phenyl]-acetamide] | 190
COc1cc(Cn2ncc(NC(=O)Cc3ccc(C4(C(F)(F)F)CC4)cc3)n2)ccc1F [Example 113, N-[2-(4-Fluoro-3-methoxy-benzyl)-2H-[1,2,3]triazol-4-yl]-2-[4-(1-trifluoromethyl-cyclopropyl)-phenyl]-acetamide] | 230
COc1cc(Cn2ncc(NC(=O)Cc3ccc(N4CCC(F)(F)C4)nc3)n2)ccc1F [Example 115, 2-[6-(3,3-Difluoro-pyrrolidin-1-yl)-pyridin-3-yl]-N-[2-(4-fluoro-3-methoxy-benzyl)-2H-[1,2,3]triazol-4-yl]-acetamide] | 45
CCn1ncc2cc(CC(=O)Nc3cnn(Cc4ccc(F)c(OC)c4)n3)ccc21 [Example 117, 2-(1-Ethyl-1H-indazol-5-yl)-N-[2-(4-fluoro-3-methoxy-benzyl)-2H-[1,2,3]triazol-4-yl]-acetamide] | 80
COc1cc(Cn2ncc(NC(=O)Cc3ccc4c(c3)c(C)cn4C)n2)ccc1F [Example 118, 2-(1,3-Dimethyl-1H-indol-5-yl)-N-[2-(4-fluoro-3-methoxy-benzyl)-2H-[1,2,3]triazol-4-yl]-acetamide] | 63
COc1ccc(Cn2ncc(NC(=O)Cc3ccc(OCC4COC4)cc3)n2)cc1F [Example 120, N-[2-(3-Fluoro-4-methoxy-benzyl)-2H-[1,2,3]triazol-4-yl]-2-[4-(oxetan-3-ylmethoxy)-phenyl]-acetamide] | 550
COc1ccc(Cn2ncc(NC(=O)Cc3ccc(C4(OC)COC4)cc3)n2)cc1F [Example 122, N-[2-(3-Fluoro-4-methoxy-benzyl)-2H-[1,2,3]triazol-4-yl]-2-[4-(3-methoxy-oxetan-3-yl)-phenyl]-acetamide] | 360
COc1ccc(Cn2ncc(NC(=O)Cc3ccc(C4(C(F)(F)F)CC4)cc3)n2)cc1F [Example 124, N-[2-(3-Fluoro-4-methoxy-benzyl)-2H-[1,2,3]triazol-4-yl]-2-[4-(1-trifluoromethyl-cyclopropyl)-phenyl]-acetamide] | 250
COc1ccc(Cn2ncc(NC(=O)Cc3ccc(OC4CC(F)(F)C4)cc3)n2)cc1F [Example 125, 2-[4-(3,3-Difluoro-cyclobutoxy)-phenyl]-N-[2-(3-fluoro-4-methoxy-benzyl)-2H-[1,2,3]triazol-4-yl]-acetamide] | 180
COc1ccc(Cn2ncc(NC(=O)Cc3ccc(N4CCC(F)(F)C4)nc3)n2)cc1F [Example 126, 2-[6-(3,3-Difluoro-pyrrolidin-1-yl)-pyridin-3-yl]-N-[2-(3-fluoro-4-methoxy-benzyl)-2H-[1,2,3]triazol-4-yl]-acetamide] | 47
COc1ccc(Cn2ncc(NC(=O)Cc3ccc(C4(F)COC4)cc3)n2)cc1F [Example 127, N-[2-(3-Fluoro-4-methoxy-benzyl)-2H-[1,2,3]triazol-4-yl]-2-[4-(3-fluoro-oxetan-3-yl)-phenyl]-acetamide] | 110
COc1ccc(Cn2ncc(NC(=O)Cc3ccc(C(C)(C)C)cc3)n2)cc1F [Example 130, 2-(4-tert-Butyl-phenyl)-N-[2-(3-fluoro-4-methoxy-benzyl)-2H-[1,2,3]triazol-4-yl]-acetamide] | 62
Cn1ncc2ccc(CC(=O)Nc3cnn(Cc4ccc(C#N)c(F)c4)n3)cc21 [Example 132, N-[2-(4-Cyano-3-fluoro-benzyl)-2H-[1,2,3]triazol-4-yl]-2-(1-methyl-1H-indazol-6-yl)-acetamide] | 180
CCn1ncc2cc(CC(=O)Nc3cnn(Cc4ccc(C#N)c(F)c4)n3)ccc21 [Example 139, N-[2-(4-Cyano-3-fluoro-benzyl)-2H-[1,2,3]triazol-4-yl]-2-(1-ethyl-1H-indazol-5-yl)-acetamide] | 69
Cc1cn(C)c2ccc(CC(=O)Nc3cnn(Cc4ccc(C#N)c(F)c4)n3)cc12 [Example 140, N-[2-(4-Cyano-3-fluoro-benzyl)-2H-[1,2,3]triazol-4-yl]-2-(1,3-dimethyl-1H-indol-5-yl)-acetamide] | 14
COc1c(F)cc(Cn2ncc(NC(=O)Cc3ccc(OCC4COC4)cc3)n2)cc1F [Example 141, N-[2-(3,5-Difluoro-4-methoxy-benzyl)-2H-[1,2,3]triazol-4-yl]-2-[4-(oxetan-3-ylmethoxy)-phenyl]-acetamide] | 86
COc1c(F)cc(Cn2ncc(NC(=O)Cc3ccc(OCC4(C)COC4)cc3)n2)cc1F [Example 144, N-[2-(3,5-Difluoro-4-methoxy-benzyl)-2H-[1,2,3]triazol-4-yl]-2-[4-(3-methyl-oxetan-3-ylmethoxy)-phenyl]-acetamide] | 56
COc1c(F)cc(Cn2ncc(NC(=O)Cc3ccc(OC4CC(F)(F)C4)cc3)n2)cc1F [Example 146, 2-[4-(3,3-Difluoro-cyclobutoxy)-phenyl]-N-[2-(3,5-difluoro4-methoxy-benzyl)-2H-[1,2,3]triazol-4-yl]-acetamide] | 810
COc1c(F)cc(Cn2ncc(NC(=O)Cc3ccc(N4CCC(F)(F)C4)nc3)n2)cc1F [Example 147, N-[2-(3,5-Difluoro-4-methoxy-benzyl)-2H-[1,2,3]triazol-4-yl]-2-[6-(3,3-difluoro-pyrrolidin-1-yl)-pyridin-3-yl]-acetamide] | 13

Next, values leading:

IC50 [nM] | SMILES
20 | Cc1cn(C)c2cc(CC(=O)Nc3cnn(Cc4ccc(C#N)c(F)c4)n3)ccc12 [Example 105, N-[2-(4-Cyano-3-fluoro-benzyl)-2H-[1,2,3]triazol-4-yl]-2-(1,3-dimethyl-1H-indol-6-yl)-acetamide]
36 | Cc1cn(C)c2cc(CC(=O)Nc3cnn(Cc4ccc(C#N)cc4)n3)ccc12 [Example 106, N-[2-(4-Cyano-benzyl)-2H-[1,2,3]triazol-4-yl]-2-(1,3-dimethyl-1H-indol-6-yl)-acetamide]
190 | COc1cc(Cn2ncc(NC(=O)Cc3ccc4cnn(C)c4c3)n2)ccc1F [Example 109, N-[2-(4-Fluoro-3-methoxy-benzyl)-2H-[1,2,3]triazol-4-yl]-2-(1-methyl-1H-indazol-6-yl)-acetamide]
140 | COc1cc(Cn2ncc(NC(=O)Cc3ccc(C4(OC)COC4)cc3)n2)ccc1F [Example 110, N-[2-(4-Fluoro-3-methoxy-benzyl)-2H-[1,2,3]triazol-4-yl]-2-[4-(3-methoxy-oxetan-3-yl)-phenyl]-acetamide]
73 | COc1cc(Cn2ncc(NC(=O)Cc3ccc(OC4CC(F)(F)C4)cc3)n2)ccc1F [Example 114]
140 | COc1cc(Cn2ncc(NC(=O)Cc3ccc(C4(F)COC4)cc3)n2)ccc1F [Example 116, N-[2-(4-Fluoro-3-methoxy-benzyl)-2H-[1,2,3]triazol-4-yl]-2-[4-(3-fluoro-oxetan-3-yl)-phenyl]-acetamide]
62 | COc1cc(Cn2ncc(NC(=O)Cc3ccc(C(C)(C)C)cc3)n2)ccc1F [Example 119, 2-(4-tert-Butyl-phenyl)-N-[2-(4-fluoro-3-methoxy-benzyl)-2H-[1,2,3]triazol-4-yl]-acetamide]
290 | COc1ccc(Cn2ncc(NC(=O)Cc3ccc4cnn(C)c4c3)n2)cc1F [Example 121, N-[2-(3-Fluoro-4-methoxy-benzyl)-2H-[1,2,3]triazol-4-yl]-2-(1-methyl-1H-indazol-6-yl)-acetamide]
870 | COc1ccc(Cn2ncc(NC(=O)Cc3ccc(OCC4(C)COC4)cc3)n2)cc1F [Example 123, N-[2-(3-Fluoro-4-methoxy-benzyl)-2H-[1,2,3]triazol-4-yl]-2-[4-(3-methyl-oxetan-3-ylmethoxy)-phenyl]-acetamide]
150 | CCn1ncc2cc(CC(=O)Nc3cnn(Cc4ccc(OC)c(F)c4)n3)ccc21 [Example 128, 2-(1-Ethyl-1H-indazol-5-yl)-N-[2-(3-fluoro-4-methoxy-benzyl)-2H-[1,2,3]triazol-4-yl]-acetamide]
48 | COc1ccc(Cn2ncc(NC(=O)Cc3ccc4c(c3)c(C)cn4C)n2)cc1F [Example 129, 2-(1,3-Dimethyl-1H-indol-5-yl)-N-[2-(3-fluoro-4-methoxy-benzyl)-2H-[1,2,3]triazol-4-yl]-acetamide]
210 | N#Cc1ccc(Cn2ncc(NC(=O)Cc3ccc(OCC4COC4)cc3)n2)cc1F [Example 131, N-[2-(4-Cyano-3-fluoro-benzyl)-2H-[1,2,3]triazol-4-yl]-2-[4-(oxetan-3-ylmethoxy)-phenyl]-acetamide]
88 | COc1c(F)cc(Cn2ncc(NC(=O)Cc3ccc4cnn(C)c4c3)n2)cc1F [Example 142, N-[2-(3,5-Difluoro-4-methoxy-benzyl)-2H-[1,2,3]triazol-4-yl]-2-(1-methyl-1H-indazol-6-yl)-acetamide]
76 | COc1c(F)cc(Cn2ncc(NC(=O)Cc3ccc(C4(OC)COC4)cc3)n2)cc1F [Example 143, N-[2-(3,5-Difluoro-4-methoxy-benzyl)-2H-[1,2,3]triazol-4-yl]-2-[4-(3-methoxy-oxetan-3-yl)-phenyl]-acetamide]
120 | COc1c(F)cc(Cn2ncc(NC(=O)Cc3ccc(C4(C(F)(F)F)CC4)cc3)n2)cc1F [Example 145, N-[2-(3,5-Difluoro-4-methoxy-benzyl)-2H-[1,2,3]triazol-4-yl]-2-[4-(1-trifluoromethyl-cyclopropyl)-phenyl]-acetamide]

Reference: patent US10246426B2, “Triazole compounds as T-type calcium channel blockers” (IDORSIA PHARMACEUTICALS LTD, priority 2014, dated 2019)
